Key:
[1] = test system: SK-MEL-28; experiment: Cytotoxicity against human SK-MEL-28 cells after 72 hrs by MTS assay; format: functional, cell-based; conditions: SK-MEL-28, 72 h
[2] = test system: MRC5; experiment: Cytotoxicity against human MRC5 cells after 72 hrs by MTS assay; format: cell-based; conditions: MRC5, 72 h
[3] = test system: MDA-MB-231; experiment: Cytotoxicity against human MDA-MB-231 cells after 72 hrs by MTS assay; format: functional, cell-based; conditions: MDA-MB-231, 72 h
[4] = Cytotoxicity against human JMAR cells after 72 hrs by MTS assay; format: functional, cell-based
[5] = Cytotoxicity against human DRO 81-1 cells after 72 hrs by MTS assay; format: functional, cell-based

CC(=O)OC[C@]12C(=O)C=C[C@H](OC(=O)c3ccc(Cl)cc3)[C@]13O[C@@H]3C[C@H]1[C@@H]3CC[C@H]([C@H](C)[C@H]4CC(C)=C(COC(=O)c5ccc(Cl)cc5)C(=O)O4)[C@@]3(C)CC[C@@H]12
IC50 [1]: ≥ 10000 nM
IC50 [2]: ≥ 10000 nM
IC50 [3]: ≥ 10000 nM
IC50 [4]: ≥ 10000 nM
IC50 [5]: ≥ 10000 nM

CCC(=O)OCC1=C(C)C[C@H]([C@@H](C)[C@H]2CC[C@H]3[C@@H]4C[C@H]5O[C@]56[C@@H](OC(=O)CC)C=CC(=O)[C@]6(COC(=O)CC)[C@H]4CC[C@]23C)OC1=O
IC50 [1]: 285 nM
IC50 [2]: 615 nM
IC50 [3]: 365 nM
IC50 [4]: 1000 nM
IC50 [5]: 130 nM

CC(=O)OCC1=C(C)C[C@H]([C@@H](C)[C@H]2CC[C@H]3[C@@H]4C[C@H]5O[C@]56[C@@H](OC(C)=O)C=CC(=O)[C@]6(COC(C)=O)[C@H]4CC[C@]23C)OC1=O
IC50 [1]: 110 nM
IC50 [2]: 310 nM
IC50 [3]: 655 nM
IC50 [4]: 655 nM
IC50 [5]: 110 nM

CC(=O)OCC1=C(C)C[C@H]([C@@H](C)[C@H]2CC[C@H]3[C@@H]4C[C@H]5O[C@]56[C@@H]5C=CC(=O)[C@]6(COC(=O)CC/C=C/CCC(=O)O5)[C@H]4CC[C@]23C)OC1=O
IC50 [1]: 205 nM
IC50 [2]: 360 nM
IC50 [3]: 245 nM
IC50 [4]: 965 nM
IC50 [5]: 225 nM

CC(=O)OCC1=C(C)C[C@H]([C@@H](C)[C@H]2CC[C@H]3[C@@H]4C[C@H]5O[C@]56[C@@H](OC(C)=O)C=CC(=O)[C@]6(CO)[C@H]4CC[C@]23C)OC1=O
IC50 [1]: 170 nM
IC50 [2]: 295 nM
IC50 [3]: 635 nM
IC50 [4]: 600 nM
IC50 [5]: 58 nM

CC1=C(COC(=O)c2ccc(Cl)cc2)C(=O)O[C@@H]([C@@H](C)[C@H]2CC[C@H]3[C@@H]4C[C@H]5O[C@]56[C@@H](OC(=O)c5ccc(Cl)cc5)C=CC(=O)[C@]6(COC(=O)c5ccc(Cl)cc5)[C@H]4CC[C@]23C)C1
IC50 [1]: ≥ 10000 nM
IC50 [2]: ≥ 10000 nM
IC50 [3]: ≥ 10000 nM
IC50 [4]: ≥ 10000 nM
IC50 [5]: ≥ 10000 nM

CC(=O)O[C@H]1C=CC(=O)[C@]2(CO)[C@H]3CC[C@]4(C)[C@@H]([C@H](C)[C@H]5CC(C)=C(CO)C(=O)O5)CC[C@H]4[C@@H]3C[C@H]3O[C@]132
IC50 [1]: 1220 nM
IC50 [2]: 1200 nM
IC50 [3]: 890 nM
IC50 [4]: 2480 nM
IC50 [5]: 570 nM

CC(=O)OCC1=C(C)C[C@H]([C@@H](C)[C@H]2CC[C@H]3[C@@H]4C[C@H]5O[C@]56[C@@H](OC(C)=O)C=C(I)C(=O)[C@]6(COC(C)=O)[C@H]4CC[C@]23C)OC1=O
IC50 [1]: 275 nM
IC50 [2]: 475 nM
IC50 [3]: 210 nM
IC50 [4]: 830 nM
IC50 [5]: 115 nM

CC1=C(CO)C(=O)O[C@@H]([C@@H](C)[C@H]2CC[C@H]3[C@@H]4C[C@H]5O[C@]56[C@@H](O)C=C(I)C(=O)[C@]6(CO)[C@H]4CC[C@]23C)C1
IC50 [1]: 9110 nM
IC50 [2]: 9100 nM
IC50 [3]: > 10000 nM
IC50 [4]: > 10000 nM
IC50 [5]: 5250 nM

CC1=C(COC(=O)c2ccc(Cl)cc2)C(=O)O[C@@H]([C@@H](C)[C@H]2CC[C@H]3[C@@H]4C[C@H]5O[C@]56[C@@H](O)C=CC(=O)[C@]6(COC(=O)c5ccc(Cl)cc5)[C@H]4CC[C@]23C)C1
IC50 [1]: 1110 nM
IC50 [2]: 2350 nM
IC50 [3]: 2620 nM
IC50 [4]: 4640 nM
IC50 [5]: 1900 nM

CC(=O)OCC1=C(C)C[C@H]([C@@H](C)[C@H]2CC[C@H]3[C@@H]4C[C@@H](O)C5=CC=CC(=O)[C@]5(COC(C)=O)[C@H]4CC[C@]23C)OC1=O
IC50 [1]: ≥ 10000 nM
IC50 [2]: ≥ 10000 nM
IC50 [3]: ≥ 10000 nM
IC50 [4]: ≥ 10000 nM
IC50 [5]: ≥ 10000 nM

CC(=O)OCC1=C(C)C[C@H]([C@@H](C)[C@H]2CC[C@H]3[C@@H]4C[C@H]5O[C@]56CC=CC(=O)[C@]6(COC(C)=O)[C@H]4CC[C@]23C)OC1=O
IC50 [1]: 710 nM
IC50 [2]: 2050 nM
IC50 [3]: 790 nM
IC50 [4]: 1220 nM
IC50 [5]: 1100 nM

CC(=O)OC[C@]12C(=O)C=C[C@H](O)[C@]13O[C@@H]3C[C@H]1[C@@H]3CC[C@H]([C@H](C)[C@H]4CC(C)=C(CO)C(=O)O4)[C@@]3(C)CC[C@@H]12
IC50 [1]: 1230 nM
IC50 [2]: 1800 nM
IC50 [3]: 1150 nM
IC50 [4]: 3060 nM
IC50 [5]: 780 nM

CC1=C(CO)C(=O)O[C@@H]([C@@H](C)[C@H]2CC[C@H]3[C@@H]4C[C@H]5O[C@]56[C@@H](O)C=CC(=O)[C@]6(CO)[C@H]4CC[C@]23C)C1
IC50 [1]: 1600 nM
IC50 [2]: 5300 nM
IC50 [3]: 1500 nM
IC50 [4]: 3100 nM
IC50 [5]: 1700 nM

CC1=C(COC(=O)c2ccc(Cl)cc2)C(=O)O[C@@H]([C@@H](C)[C@H]2CC[C@H]3[C@@H]4C[C@H]5O[C@]56[C@@H](OC(=O)c5ccc(Cl)cc5)C=CC(=O)[C@]6(CO)[C@H]4CC[C@]23C)C1
IC50 [1]: ≥ 10000 nM
IC50 [2]: ≥ 10000 nM
IC50 [3]: ≥ 10000 nM
IC50 [4]: ≥ 10000 nM
IC50 [5]: ≥ 10000 nM

CC(=O)OCC1=C(C)C[C@H]([C@@H](C)[C@H]2CC[C@H]3[C@@H]4C[C@H]5O[C@]56[C@@H](OC(=O)N(C)C)C=CC(=O)[C@]6(COC(C)=O)[C@H]4CC[C@]23C)OC1=O
IC50 [1]: 205 nM
IC50 [2]: 510 nM
IC50 [3]: 175 nM
IC50 [4]: 970 nM
IC50 [5]: 86.5 nM

CC1=C(CO)C(=O)O[C@@H]([C@@H](C)[C@H]2CC[C@H]3[C@@H]4C[C@H]5O[C@]56[C@@H](OC(=O)N(C)C)C=CC(=O)[C@]6(CO)[C@H]4CC[C@]23C)C1
IC50 [1]: 515 nM
IC50 [2]: 1750 nM
IC50 [3]: 610 nM
IC50 [4]: 2090 nM
IC50 [5]: 585 nM

CC(=O)OCC1=C(C)C[C@H]([C@@H](C)[C@H]2CC[C@H]3[C@@H]4C[C@H]5O[C@]56[C@@H](O)C=CC(=O)[C@]6(CO)[C@H]4CC[C@]23C)OC1=O
IC50 [1]: 705 nM
IC50 [2]: 2300 nM
IC50 [3]: 415 nM
IC50 [4]: 1220 nM
IC50 [5]: 1050 nM

C=CCCC(=O)OC[C@]12C(=O)C=C[C@H](OC(=O)CCC=C)[C@]13O[C@@H]3C[C@H]1[C@@H]3CC[C@H]([C@H](C)[C@H]4CC(C)=C(COC(C)=O)C(=O)O4)[C@@]3(C)CC[C@@H]12
IC50 [1]: 470 nM
IC50 [2]: 865 nM
IC50 [3]: 625 nM
IC50 [4]: 1440 nM
IC50 [5]: 580 nM

CC1=C(CO)C(=O)O[C@@H]([C@@H](C)[C@H]2CC[C@H]3[C@@H]4C[C@H]5O[C@]56[C@@H](O)C=CC(=O)[C@]6(C)[C@H]4CC[C@]23C)C1 [WITHAFERIN A]
IC50 [1]: 1000 nM
IC50 [2]: 2700 nM
IC50 [3]: 540 nM
IC50 [4]: 1000 nM
IC50 [5]: 780 nM

CC(=O)OCC1=C(C)C[C@H]([C@@H](C)[C@H]2CC[C@H]3[C@@H]4C[C@H]5O[C@]56[C@@H](O)C=CC(=O)[C@]6(COC(C)=O)[C@H]4CC[C@]23C)OC1=O
IC50 [1]: 230 nM
IC50 [2]: 490 nM
IC50 [3]: 205 nM
IC50 [4]: 515 nM
IC50 [5]: 155 nM

CC1=C(CO)C(=O)O[C@@H]([C@@H](C)[C@H]2CC[C@H]3[C@@H]4C[C@H]5O[C@]56[C@@H](OC(=O)c5ccc(Cl)cc5)C=CC(=O)[C@]6(CO)[C@H]4CC[C@]23C)C1
IC50 [1]: 2250 nM
IC50 [2]: 2550 nM
IC50 [3]: 1400 nM
IC50 [4]: 1720 nM
IC50 [5]: 1850 nM

CC(=O)OCC1=C(C)C[C@H]([C@@H](C)[C@H]2CC[C@H]3[C@@H]4C[C@@H](O)[C@@]5(Cl)CC=CC(=O)[C@]5(COC(C)=O)[C@H]4CC[C@]23C)OC1=O
IC50 [1]: 1170 nM
IC50 [2]: 3150 nM
IC50 [3]: 800 nM
IC50 [4]: 2160 nM
IC50 [5]: 1350 nM

CC(=O)OCC1=C(C)C[C@H]([C@@H](C)[C@H]2CC[C@H]3[C@@H]4C[C@@H](OC(C)=O)C5=CC=CC(=O)[C@]5(COC(C)=O)[C@H]4CC[C@]23C)OC1=O
IC50 [1]: ≥ 10000 nM
IC50 [2]: ≥ 10000 nM
IC50 [3]: ≥ 10000 nM
IC50 [4]: ≥ 10000 nM
IC50 [5]: ≥ 10000 nM

— ChEMBL document CHEMBL3091280, “Synthesis and Cytotoxicity of Semisynthetic Withalongolide A Analogues” (ACS Med Chem Lett, 2013)
